Measurements reported in US5591602A (priority 1993, dated 1997).

Legend:
μ receptors = conditions: cited from earlier work
enkephalins = conditions: peripheral administration; Bertolucci et al., 1992; cited from earlier work
[1] = tested on: all known opioid receptor subtypes; conditions: cited from earlier work
κ and ε sites = conditions: brain; Chang et al., 1981; cited from earlier work
ε receptors = assay: inhibition of cAMP formation in BHK cells expressing ε receptors; format: cell-based, human
ε opioid receptor = molecular target: T1, ε opioid receptor (Homo sapiens, UniProt P48145); assay: ligand affinity/interaction profile of the cloned receptor; format: binding
T1 construct: a 2 kb fragment was removed from the 5' untranslated region of the gene and the shortened insert (2.5 kb) was subcloned; expressed in transfected cells; host or cells: COS and BHK cells (pRC/CMV vector)
T1 sequence (P48145 1-328 S296T): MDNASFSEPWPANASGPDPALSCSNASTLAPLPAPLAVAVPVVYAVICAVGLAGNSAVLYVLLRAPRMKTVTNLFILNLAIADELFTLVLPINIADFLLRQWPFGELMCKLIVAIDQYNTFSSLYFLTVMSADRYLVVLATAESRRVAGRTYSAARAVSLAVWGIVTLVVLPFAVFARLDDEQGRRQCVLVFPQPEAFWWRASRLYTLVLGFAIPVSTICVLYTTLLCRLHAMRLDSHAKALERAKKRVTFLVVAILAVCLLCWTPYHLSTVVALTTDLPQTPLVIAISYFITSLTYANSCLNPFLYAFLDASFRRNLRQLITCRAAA

[2] = tested on: U-69, 593 insensitive benzoinorphan site; conditions: Nock et al., 1993; cited from earlier work

CN1CC[C@]23c4c5ccc(O)c4O[C@H]2[C@@H](O)C=C[C@H]3[C@H]1C5 [Morphine]
interaction with μ receptors (in words) (μ receptors): interacts principally with μ receptors
release of enkephalins (in words) (enkephalins): induces release of enkephalins

CCC12CCN(CC3(O)CC3)C(Cc3ccc(O)cc31)C2(C)C (stereo not shown) [[^3 H]bremazocine]
affinity for all known opioid receptor subtypes (in words) [1]: high affinity

CC[C@]12CCN(CC3CC3)[C@H](C(=O)c3ccc(O)cc31)[C@@H]2C [ethylketocyclazocine]
labelling of opioid binding sites (in words) (κ and ε sites): label two populations of non-μ, non-δ opioid binding sites

CN1CC[C@]23CCCC[C@H]2[C@H]1Cc1ccc(O)cc13 [levorphanol]
inhibition of cAMP formation (ε receptors): inhibition of cAMP formation

β-endorphin: endogenous opioid peptide with high affinity for the ε receptor
affinity of the receptor for the ligand (in words) (ε opioid receptor): high affinity
affinity for the U-69,593 insensitive site (in words) [2]: high affinity
